These results are taken from patent US20160361298A1, “METHODS AND COMPOSITIONS FOR TREATING CANCER” (Globavir BioSciences, Inc., priority 2015, published 2016).

In one experiment the target is T1, Recombinant TDO (Homo sapiens, UniProt P48775).
T1 construct: Recombinant TDO or IDO was diluted to 16 ng/uL and 50 uL loaded into wells of a 96-well plate
In words: TDO Inhibition Assay (recombinant enzyme, absorbance at 321 nm). It is filed as biochemical. The note with it: for activity at 1 µM: 1 μM test compound, read-out: TDO Inhibition Assay Screening (Activity, %) 1 μM; for activity at 10 µM: read-out: TDO Inhibition Assay Screening (Activity, %) 10 μM. The method, then: Inhibition of IDO by TDO/IDO test inhibitors was assessed in vitro. A substrate mixture was prepared by mixing equal volumes of 80 mM ascorbic acid diluted in 0.405 M Tris, pH 8.0 and a mixture of […] L-tryptophan, 9,000 units/mL catalase and 40 uM methyene blue. Recombinant TDO or IDO was diluted to 16 ng/uL and 50 uL loaded into wells of a 96-well plate. The reaction was started by the addition of 50 uL substrate mixture. The plate was read in kinetic mode at 321 nm for 5 minutes. The rate of increase of absorbance measured in the absence of a TDO/IDO inhibitor is taken as the maximum rate of enzymatic activity.

For the next experiment, the target named is T2, Recombinant IDO (Homo sapiens, UniProt P14902).
T2 construct: Recombinant TDO or IDO was diluted to 16 ng/uL and 50 uL loaded into wells of a 96-well plate
The experiment is described as follows: IDO Inhibition Assay (recombinant enzyme, absorbance at 321 nm). It is filed as biochemical. The settings on record: for activity at 1 µM: 1 μM test compound, read-out: IDO Inhibition Assay Screening (Activity, %) 1 μM; for activity at 10 µM: read-out: IDO Inhibition Assay Screening (Activity, %) 10 μM. How it is done: Inhibition of IDO by TDO/IDO test inhibitors was assessed in vitro. […] Recombinant TDO or IDO was diluted to 16 ng/uL and 50 uL loaded into wells of a 96-well plate. The reaction was started by the addition of 50 uL substrate mixture. […] The rate of increase of absorbance measured in the absence of a TDO/IDO inhibitor is taken as the maximum rate of enzymatic activity.

Experiment [1] deals with HuT78 (human CTCL cell line). The experiment is described as follows: Cancer cell cytotoxicity, CellTiter-Glo Luminescent Cell Viability Assay. The note with it: HuT78, read-out: IC50 (μM) cancer cell cytotoxicity. (In general: Cellular ATP, detected with luciferase, serves as a proxy for viable cell number.)
Procedure: (§1) TDO/IDO test compounds were incubated with various cancer cell lines to determine the effect of the test compounds on cancer cell death. The CellTiter-Glo Luminescent Cell Viability Assay was used to determine cell cytotoxicity by determining the number of viable cells in culture based on quantitation of ATP, which signals the presence of metabolically active cells.
Experiment [2] has as its system U87MG (human glioblastoma). The experiment is described as above. The settings on record: U-87 MG, read-out: IC50 (μM) cancer cell cytotoxicity.
Procedure: as §1
The subject of experiment [3] is SCC4 (human squamous cell carcinoma). The experiment is described as above. The note with it: SCC-4, read-out: IC50 (μM) cancer cell cytotoxicity.
Procedure: as §1
Experiment [4] has as its system HT29 (human colorectal adenocarcinoma). Described as above. The settings on record: HT-29, read-out: IC50 (μM) cancer cell cytotoxicity.
Procedure: as §1
The test system of the next experiment is CT26 (murine colon). Described as above. The settings on record: Mus musculus, CT26, read-out: IC50 (μM) cancer cell cytotoxicity.
The subject of experiment [5] is Pano2 (murine pancreatic). The experiment is described as above. The settings on record: Mus musculus, PanO2, read-out: IC50 (μM) cancer cell cytotoxicity.
Procedure: as §1
For a further experiment, the system named is GL261 (murine glioma). The description is as above. The settings on record: Mus musculus, GL261, read-out: IC50 (μM) cancer cell cytotoxicity.
The mark [6] stands for this setting: 10 μM test compound, remaining enzyme activity.
[7] abbreviates: read-out: TDO Inhibition Assay Dose Resp. (IC50).
Where [8] appears, read: read-out: IDO Inhibition Assay Dose Resp. (IC50).

Read-outs that look alike come from different tables or passages of the source.

T2 sequence (P14902 whole entry): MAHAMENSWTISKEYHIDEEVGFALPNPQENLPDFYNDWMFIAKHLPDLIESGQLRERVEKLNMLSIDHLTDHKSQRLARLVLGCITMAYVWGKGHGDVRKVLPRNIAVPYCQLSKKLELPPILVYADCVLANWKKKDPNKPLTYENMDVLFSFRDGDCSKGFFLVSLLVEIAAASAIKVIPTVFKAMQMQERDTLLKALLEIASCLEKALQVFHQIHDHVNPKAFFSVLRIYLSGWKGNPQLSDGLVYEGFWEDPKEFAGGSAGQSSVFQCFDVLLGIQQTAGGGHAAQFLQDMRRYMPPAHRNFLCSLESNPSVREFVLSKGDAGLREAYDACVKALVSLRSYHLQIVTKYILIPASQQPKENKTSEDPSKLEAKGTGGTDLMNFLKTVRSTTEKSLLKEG
T1 sequence (P48775 whole entry): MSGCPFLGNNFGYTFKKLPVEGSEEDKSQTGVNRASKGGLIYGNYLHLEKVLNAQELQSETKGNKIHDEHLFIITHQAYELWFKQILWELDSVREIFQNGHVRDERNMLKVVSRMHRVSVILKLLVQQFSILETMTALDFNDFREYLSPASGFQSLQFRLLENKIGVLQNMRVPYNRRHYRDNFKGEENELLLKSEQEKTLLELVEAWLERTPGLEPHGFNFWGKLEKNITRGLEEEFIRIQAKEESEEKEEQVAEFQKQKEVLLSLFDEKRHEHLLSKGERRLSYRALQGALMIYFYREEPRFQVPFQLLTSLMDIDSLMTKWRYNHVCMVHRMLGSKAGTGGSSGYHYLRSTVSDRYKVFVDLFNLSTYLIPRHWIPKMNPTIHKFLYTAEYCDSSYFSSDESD
Procedure for CT26 (murine colon): as §1
Procedure for GL261 (murine glioma): as §1

A word on the IC50: it is the concentration that inhibits the measured activity by half. Turning to `Clc1cccc(C(c2ccc3[nH]cnc3c2)n2ccnc2)c1` (stereo not shown) [Liarozole], the activity at 1 µM on Recombinant TDO (remaining enzyme activity) came to 89%; at Recombinant IDO (remaining enzyme activity), 99%. In addition, the activity at 10 µM at Recombinant TDO (setting [6]) came to 43%; at Recombinant IDO (setting [6]), 88%. Besides, the IC50 stood at 9.33 µM on Recombinant TDO (setting [7]) and 63.4 µM on Recombinant IDO (setting [8]).
Consider `O=C(O)c1ccc(-n2nc(-c3ccccc3O)nc2-c2ccccc2O)cc1` [Deferasirox], for which the activity at 1 µM at Recombinant TDO (remaining enzyme activity) was found to be 107%; at Recombinant IDO (remaining enzyme activity), 90%. Moreover, the values for the activity at 10 µM at Recombinant TDO (setting [6]) and at Recombinant IDO (setting [6]) were 69% and 85%, respectively.
As for `Clc1ccc(C(Cn2ccnc2)OCc2c(Cl)cccc2Cl)c(Cl)c1` (stereo not shown) [Isoconazole], the half-inhibitory concentration (IC50) stood at 4.12 µM on Recombinant TDO; 14.6 µM on Recombinant IDO; 15.7 µM in experiment [1]; 63.9 µM in experiment [2]; 83.8 µM in experiment [3]; 14.8 µM in experiment [4]. In addition, the concentration for half-maximal inhibition (IC50) in the experiment on CT26 (murine colon) amounted to 14.8 µM; in [5], 12.6 µM; with GL261 (murine glioma), 15.6 µM. Moreover, the activity at 1 µM on Recombinant TDO (remaining enzyme activity) came to 58%; at Recombinant IDO (remaining enzyme activity), 76%. Besides, the activity at 10 µM at Recombinant TDO (setting [6]) is 17%; at Recombinant IDO (setting [6]) it was 53%.
Turning to `CCC(C)n1ncn(-c2ccc(N3CCN(c4ccc(OCC5COC(Cn6cncn6)(c6ccc(Cl)cc6Cl)O5)cc4)CC3)cc2)c1=O` (stereo not shown) [Itraconazole], the activity at 1 µM was found to be 93% at Recombinant TDO (remaining enzyme activity) and 72% at Recombinant IDO (remaining enzyme activity). Moreover, the figures for the activity at 10 µM on Recombinant TDO (setting [6]) and on Recombinant IDO (setting [6]) were 82% and 56%, respectively. In addition, the half-maximal inhibitory concentration (IC50) stood at 47 µM on Recombinant TDO (setting [7]) and 17.4 µM at Recombinant IDO (setting [8]).
Take `Clc1ccc(C(Cn2ccnc2)OCc2ccc(Sc3ccccc3)cc2)c(Cl)c1` (stereo not shown) [Fenticonazole]: the activity at 1 µM at Recombinant TDO (remaining enzyme activity) was determined as 89%; on Recombinant IDO (remaining enzyme activity) it was 85%. The results for the activity at 10 µM at Recombinant TDO (setting [6]) and at Recombinant IDO (setting [6]) were -34% and 56%, respectively. The IC50 on Recombinant TDO (setting [7]) was found to be 2.73 µM; in [1], 9.16 µM; in [2], 15.6 µM; in experiment [3], 78.8 µM; in [4], 13.9 µM; in the experiment on CT26 (murine colon), 7.6 µM. The values for the concentration for half-maximal inhibition (IC50) (in experiment [5]; with GL261 (murine glioma)) were 16.1 µM and 15.2 µM, respectively.
`C=C(c1ccccc1OCc1cccc(Cl)c1)n1ccnc1` [Cloconazole]: the IC50 came to 0.532 µM at Recombinant TDO (setting [7]); 19.4 µM in experiment [1]; 26.7 µM in experiment [2]; 46.2 µM in experiment [3]; 10.7 µM in experiment [4]; 8.06 µM in the experiment on CT26 (murine colon). The results for the IC50 (in [5]; with GL261 (murine glioma)) were 9.61 µM and 20.3 µM, respectively. Besides, the activity at 10 µM on Recombinant TDO was 5%; at Recombinant IDO, 76%.
Consider `Clc1ccc(COC(Cn2ccnc2)c2ccc(Cl)cc2Cl)c(Cl)c1` (stereo not shown) [Miconazole], for which the activity at 1 µM turned out to be 74% on Recombinant TDO (remaining enzyme activity) and 67% at Recombinant IDO (remaining enzyme activity). Further, the activity at 10 µM on Recombinant TDO (setting [6]) is 16%; on Recombinant IDO (setting [6]), 27%. Also, the IC50 amounted to 3.7 µM on Recombinant TDO (setting [7]) and 4.69 µM at Recombinant IDO.
On to `NS(=O)(=O)NCCNc1nonc1C(=NO)Nc1ccc(F)c(Br)c1` [INCB024360], for which the IC50 in experiment [1] was determined as 72.5 µM; in experiment [4] it was 53.7 µM; in the experiment with CT26 (murine colon) it was 69.9 µM; in experiment [5], 53.5 µM; in the experiment with GL261 (murine glioma), 48.9 µM.
In the case of `Clc1ccc(COC(Cn2ccnc2)c2ccc(Cl)cc2Cl)cc1` (stereo not shown) [Econazole], the activity at 1 µM at Recombinant TDO (remaining enzyme activity) was found to be 80%; at Recombinant IDO (remaining enzyme activity), 71%. Moreover, the activity at 10 µM was found to be 20% on Recombinant TDO (setting [6]) and 28% at Recombinant IDO (setting [6]). In addition, the IC50 was found to be 5.35 µM at Recombinant TDO (setting [7]) and 4.91 µM at Recombinant IDO.
As for `Clc1ccc(C(Cn2ccnc2)OCc2csc3c(Cl)cccc23)c(Cl)c1` (stereo not shown) [Sertaconazole], the activity at 1 µM at Recombinant TDO (remaining enzyme activity) came out at 74%; on Recombinant IDO (remaining enzyme activity), 63%. Also, the activity at 10 µM at Recombinant TDO (setting [6]) turned out to be 15%; on Recombinant IDO (setting [6]), 37%. In addition, the IC50 at Recombinant TDO (setting [7]) stood at 4.07 µM; on Recombinant IDO, 8.25 µM; in experiment [1], 17.7 µM; in [2] it was 13.9 µM; in experiment [4] it was 11.9 µM; in the experiment with CT26 (murine colon), 10.9 µM. For the same molecule, the IC50 was found to be 16.1 µM in experiment [5] and 30.1 µM in the experiment with GL261 (murine glioma).
On to `Clc1ccc(C(Cn2ccnc2)OCc2ccsc2Cl)c(Cl)c1` (stereo not shown) [Tioconazole], for which the activity at 1 µM on Recombinant TDO (remaining enzyme activity) was 83%; at Recombinant IDO (remaining enzyme activity) it was 76%. Further, the activity at 10 µM on Recombinant TDO (setting [6]) worked out at 28%; at Recombinant IDO (setting [6]), 47%. Besides, the half-maximal inhibitory concentration (IC50) at Recombinant TDO (setting [7]) is 4.16 µM; at Recombinant IDO (setting [8]) it was 9.33 µM; in [1], 12.1 µM; in [2], 26.1 µM; in [3], 28.2 µM; in [4] it was 18.2 µM. For the same molecule, the concentration for half-maximal inhibition (IC50) in the experiment on CT26 (murine colon) came to 14 µM; in [5], 22.2 µM; with GL261 (murine glioma), 27 µM.
Take `O=C(Nc1ccc([N+](=O)[O-])cc1Cl)c1cc(Cl)ccc1O` [Niclosamide]: the activity at 1 µM is 82% on Recombinant TDO (remaining enzyme activity) and 84% at Recombinant IDO (remaining enzyme activity). In addition, the activity at 10 µM came out at 62% at Recombinant TDO (setting [6]) and 75% on Recombinant IDO (setting [6]).
Take `CC1=NN(c2ccc(C)c(C)c2)C(=O)/C1=N\Nc1cccc(-c2cccc(C(=O)O)c2)c1O` [Eltrombopag]: the values for the activity at 10 µM at Recombinant TDO (setting [6]) and at Recombinant IDO (setting [6]) were 5% and 83%, respectively. In addition, the IC50 at Recombinant TDO (setting [7]) was determined as 1.05 µM.
